In the NIST ThermoML archive (doi:10.1016/j.jct.2015.05.004):

Assay: xn = mol fraction of the nth substance listed
Conditions: 100 kPa, Liquid; for speed of sound: Frequency=3 MHz, Sing-around technique in a fixed-path interferometer; for mass density: Vibrating tube method

CCCCn1cc[n+](C)c1.N#C[S-] [1-butyl-3-methylimidazolium thiocyanate] + CC(=O)O
Conditions	mass density, 293.15 K [kg/m3]	mass density, 298.15 K [kg/m3]	mass density, 303.15 K [kg/m3]	mass density, 308.15 K [kg/m3]	mass density, 313.15 K [kg/m3]	speed of sound, 293.15 K [m/s]	speed of sound, 298.15 K [m/s]	speed of sound, 303.15 K [m/s]	speed of sound, 308.15 K [m/s]	speed of sound, 313.15 K [m/s]
x1 = 0.058	1064.97	1060.08	1055.2	1050.32	1045.44	1270.5	1252.4	1235.9	1218.7	1202
x1 = 0.1206	1070.89	1066.45	1062	1057.56	1053.12	1369.6	1353.9	1338	1322.1	1306.4
x1 = 0.1878	1072.93	1069.2	1064.96	1060.77	1056.64	1448.3	1433.8	1419	1404.2	1389.4
x1 = 0.2632	1073.93	1070.07	1066.21	1062.35	1058.51	1520	1506.3	1492.2	1478.1	1464.2
x1 = 0.3498	1073.95	1070.59	1066.92	1063.27	1059.63	1576.8	1563.6	1550.1	1536.6	1523.3
x1 = 0.4503	1074.04	1070.98	1067.53	1064.1	1060.67	1626.5	1613.6	1600.6	1587.6	1574.8
x1 = 0.5559	1073.89	1070.99	1067.68	1064.39	1061.21	1667	1658.3	1641.9	1629.3	1616.9
x1 = 0.6831	1073.66	1071.08	1067.9	1064.74	1061.59	1707.6	1695.4	1683.1	1670.8	1658.6
x1 = 0.8282	1073.35	1070.87	1067.81	1064.75	1061.71	1744.3	1732.4	1720.3	1708.4	1696.4
x1 = 0.9042	1073.19	1070.77	1067.74	1064.74	1061.75	1760.7	1749	1737	1725.2	1713.4
x1 = 1	1072.74	1070.34	1067.37	1064.42	1061.47	1778.8	1767.2	1755.4	1743.7	1732.1

CCCCn1cc[n+](C)c1.N#C[S-] [1-butyl-3-methylimidazolium thiocyanate] + CCC(=O)O
Conditions	mass density, 293.15 K [kg/m3]	mass density, 298.15 K [kg/m3]	mass density, 303.15 K [kg/m3]	mass density, 308.15 K [kg/m3]	mass density, 313.15 K [kg/m3]	speed of sound, 293.15 K [m/s]	speed of sound, 298.15 K [m/s]	speed of sound, 303.15 K [m/s]	speed of sound, 308.15 K [m/s]	speed of sound, 313.15 K [m/s]
x1 = 0.0698	1015.42	1010.77	1006.13	1001.49	996.86	1260.2	1243	1225.7	1208.3	1191
x1 = 0.1444	1031.52	1027.32	1023.13	1018.95	1014.78	1361.3	1345.7	1329.8	1313.9	1298.1
x1 = 0.2223	1042.18	1038.27	1034.37	1030.48	1026.6	1445.8	1431.2	1416.3	1401.5	1386.8
x1 = 0.306	1049.78	1046.09	1042.4	1038.73	1035.07	1514.4	1500.5	1486.3	1472.3	1458.3
x1 = 0.3989	1055.66	1052.15	1048.65	1045.17	1041.69	1571.4	1558.1	1544.6	1531.1	1517.8
x1 = 0.5022	1060.19	1057.09	1053.43	1050.09	1046.79	1619.3	1606.6	1593.7	1580.8	1568.1
x1 = 0.6068	1064.02	1061.09	1057.85	1054.64	1051.44	1662	1649.6	1637	1624.6	1612.2
x1 = 0.7166	1067.2	1064.46	1061.32	1058.2	1055.09	1700.9	1688.8	1676.4	1664.2	1652.1
x1 = 0.8561	1070.36	1067.84	1064.79	1061.76	1058.74	1742.8	1730.9	1718.9	1707	1695.1
x1 = 0.9209	1071.7	1069.3	1066.3	1063.3	1060.33	1761.8	1750	1738.1	1726.3	1714.6
x1 = 1	1072.74	1070.34	1067.37	1064.42	1061.47	1778.8	1767.2	1755.4	1743.7	1732.1

CC(=O)O [acetic acid] + CCCCn1cc[n+](C)c1.N#C[S-]
x2 = 0
Conditions	mass density [kg/m3]	speed of sound [m/s]
293.15 K	1049.75	1152.7
298.15 K	1044.13	1135.7
303.15 K	1038.48	1118.4
308.15 K	1032.83	1101.2
313.15 K	1027.18	1084

CCC(=O)O [propanoic acid] + CCCCn1cc[n+](C)c1.N#C[S-]
x2 = 0
Conditions	mass density [kg/m3]	speed of sound [m/s]
293.15 K	993.33	1164.7
298.15 K	987.94	1146
303.15 K	982.54	1127.1
308.15 K	977.14	1108.3
313.15 K	971.75	1089.6
